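Five concentrations, 48 hours, 96-well plates. Here, GI50 denotes the concentration required for 50% inhibition of growth. TGI is the concentration that stops growth completely.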
Columns and labels:
Experiment in all cases: NCI anticancer screen, dose series, 48 h
NCI-H23 lung = system: NCI-H23 lung
MALME-3M melanoma = system: MALME-3M melanoma
COLO 205 colon = system: COLO 205 colon
SR leukemia = system: SR leukemia
SK-MEL-5 melanoma = system: SK-MEL-5 melanoma
NCI-H460 lung = system: NCI-H460 lung
A549 NSCLC = system: A549 NSCLC
OVCAR-3 ovarian = system: OVCAR-3 ovarian
MDA-MB-231 breast = system: MDA-MB-231 breast
RPMI-8226 leukemia = system: RPMI-8226 leukemia
SK-MEL-2 melanoma = system: SK-MEL-2 melanoma
DU-145 prostate = system: DU-145 prostate
HT29 colon = system: HT29 colon
ACHN renal = system: ACHN renal
SF-268 CNS = system: SF-268 CNS
SK-OV-3 ovarian = system: SK-OV-3 ovarian
BT-549 breast = system: BT-549 breast
NCI-H226 lung = system: NCI-H226 lung
OVCAR-8 ovarian = system: OVCAR-8 ovarian
LOX IMVI melanoma = system: LOX IMVI melanoma
SF-539 CNS = system: SF-539 CNS
EKVX NSCLC = system: EKVX NSCLC
TK-10 renal = system: TK-10 renal
A498 renal = system: A498 renal
SN12C renal = system: SN12C renal
OVCAR-4 ovarian = system: OVCAR-4 ovarian
K-562 leukemia = system: K-562 leukemia
UACC-62 melanoma = system: UACC-62 melanoma
U251 CNS = system: U251 CNS
NCI/ADR-RES ovarian = system: NCI/ADR-RES ovarian
MOLT-4 leukemia = system: MOLT-4 leukemia
786-0 renal = system: 786-0 renal
NCI-H522 lung = system: NCI-H522 lung
HCT-15 colon = system: HCT-15 colon
PC-3 prostate = system: PC-3 prostate
OVCAR-5 ovarian = system: OVCAR-5 ovarian
HCT-116 colon = system: HCT-116 colon
T-47D breast = system: T-47D breast
HOP-62 NSCLC = system: HOP-62 NSCLC
MDA-MB-435 = system: MDA-MB-435
HL-60(TB) leukemia = system: HL-60(TB) leukemia
HOP-92 NSCLC = system: HOP-92 NSCLC
HCC-2998 colon = system: HCC-2998 colon
M14 melanoma = system: M14 melanoma
SNB-19 CNS = system: SNB-19 CNS
MCF7 breast = system: MCF7 breast
UO-31 renal = system: UO-31 renal
KM12 colon = system: KM12 colon
SK-MEL-28 melanoma = system: SK-MEL-28 melanoma
IGROV1 ovarian = system: IGROV1 ovarian
RXF 393 renal = system: RXF 393 renal
HS 578T breast = system: HS 578T breast
CCRF-CEM leukemia = system: CCRF-CEM leukemia
SNB-75 CNS = system: SNB-75 CNS
UACC-257 melanoma = system: UACC-257 melanoma
CAKI-1 renal = system: CAKI-1 renal
SF-295 CNS = system: SF-295 CNS
SW-620 colon = system: SW-620 colon

Molecule `CC(C)(C)c1ccc(C(=O)Nc2sc3c(c2C(N)=O)CCC(=O)C3)cc1` has a GI50 (NCI-H23 lung) of 0.423 µM, a TGI (NCI-H23 lung) of 1.86 µM and a GI50 (MALME-3M melanoma) of 0.906 µM. For the same molecule, the TGI (MALME-3M melanoma) was 2.66 µM, the GI50 (COLO 205 colon) was 0.617 µM and the TGI (COLO 205 colon) was 1.63 µM. It also gave a GI50 (SR leukemia) of 0.363 µM, a TGI (SR leukemia) of 10.1 µM and a GI50 (SK-MEL-5 melanoma) of 1.53 µM. The TGI (SK-MEL-5 melanoma) was 2.96 µM, the GI50 (NCI-H460 lung) was 0.586 µM and the TGI (NCI-H460 lung) was 1.94 µM. The GI50 (A549 NSCLC) was 0.688 µM, the TGI (A549 NSCLC) was 3.28 µM and the GI50 (OVCAR-3 ovarian) was 0.426 µM. For the same molecule, the TGI (OVCAR-3 ovarian) was 1.52 µM, the GI50 (MDA-MB-231 breast) was 0.999 µM and the TGI (MDA-MB-231 breast) was 2.63 µM. For the same molecule, the GI50 (RPMI-8226 leukemia) was 0.158 µM, the TGI (RPMI-8226 leukemia) was 0.581 µM and the GI50 (SK-MEL-2 melanoma) was 1.9 µM. For the same molecule, the TGI (SK-MEL-2 melanoma) was 4.73 µM, the GI50 (DU-145 prostate) was 2.72 µM and the TGI (DU-145 prostate) was 11.1 µM. For the same molecule, the GI50 (HT29 colon) was 0.489 µM, the TGI (HT29 colon) was 3.5 µM and the GI50 (ACHN renal) was 0.352 µM. The TGI (ACHN renal) was 1.1 µM, the GI50 (SF-268 CNS) was 1.11 µM and the TGI (SF-268 CNS) was 3.61 µM. For the same molecule, the GI50 (SK-OV-3 ovarian) was 2.81 µM, the TGI (SK-OV-3 ovarian) was 8.75 µM and the GI50 (BT-549 breast) was 0.356 µM. For the same molecule, the TGI (BT-549 breast) was 1.56 µM, the GI50 (NCI-H226 lung) was 1.53 µM and the TGI (NCI-H226 lung) was 3.43 µM. It also gave a GI50 (OVCAR-8 ovarian) of 0.831 µM, a TGI (OVCAR-8 ovarian) of 4.85 µM and a GI50 (LOX IMVI melanoma) of 0.398 µM. It also gave a TGI (LOX IMVI melanoma) of 1.51 µM, a GI50 (SF-539 CNS) of 0.438 µM and a TGI (SF-539 CNS) of 1.61 µM. For the same molecule, the GI50 (EKVX NSCLC) was 1.97 µM, the TGI (EKVX NSCLC) was 4.82 µM and the GI50 (TK-10 renal) was 1.42 µM. The TGI (TK-10 renal) was 4.77 µM, the GI50 (A498 renal) was 2.83 µM and the TGI (A498 renal) was 9.04 µM. It also gave a GI50 (SN12C renal) of 0.654 µM, a TGI (SN12C renal) of 2.05 µM and a GI50 (OVCAR-4 ovarian) of 0.354 µM. The TGI (OVCAR-4 ovarian) was 1.27 µM, the GI50 (K-562 leukemia) was 0.127 µM and the GI50 (UACC-62 melanoma) was 0.498 µM. For the same molecule, the TGI (UACC-62 melanoma) was 2.01 µM, the GI50 (U251 CNS) was 0.345 µM and the TGI (U251 CNS) was 1.43 µM. The GI50 (NCI/ADR-RES ovarian) was 1.47 µM, the TGI (NCI/ADR-RES ovarian) was 5.53 µM and the GI50 (MOLT-4 leukemia) was 0.705 µM. It also gave a TGI (MOLT-4 leukemia) of 3.45 µM, a GI50 (786-0 renal) of 1.86 µM and a TGI (786-0 renal) of 5.07 µM. The GI50 (NCI-H522 lung) was 0.318 µM, the TGI (NCI-H522 lung) was 1.91 µM and the GI50 (HCT-15 colon) was 0.408 µM. The TGI (HCT-15 colon) was 2.38 µM, the GI50 (PC-3 prostate) was 0.188 µM and the TGI (PC-3 prostate) was 1.48 µM. The GI50 (OVCAR-5 ovarian) was 1.49 µM, the TGI (OVCAR-5 ovarian) was 3.82 µM and the GI50 (HCT-116 colon) was 0.287 µM. It also gave a TGI (HCT-116 colon) of 1.29 µM, a GI50 (T-47D breast) of 0.261 µM and a TGI (T-47D breast) of 1.65 µM. The GI50 (HOP-62 NSCLC) was 2.38 µM, the TGI (HOP-62 NSCLC) was 6.62 µM and the GI50 (MDA-MB-435) was 1.67 µM. The TGI (MDA-MB-435) was 3.7 µM, the GI50 (HL-60(TB) leukemia) was 0.481 µM and the TGI (HL-60(TB) leukemia) was 4.82 µM. The GI50 (HOP-92 NSCLC) was 1.13 µM, the TGI (HOP-92 NSCLC) was 2.96 µM and the GI50 (HCC-2998 colon) was 1.97 µM. The TGI (HCC-2998 colon) was 4.22 µM, the GI50 (M14 melanoma) was 0.413 µM and the TGI (M14 melanoma) was 1.57 µM. It also gave a GI50 (SNB-19 CNS) of 0.457 µM, a TGI (SNB-19 CNS) of 1.94 µM and a GI50 (MCF7 breast) of 0.402 µM. It also gave a TGI (MCF7 breast) of 2.96 µM, a GI50 (UO-31 renal) of 0.425 µM and a TGI (UO-31 renal) of 1.46 µM. For the same molecule, the GI50 (KM12 colon) was 0.55 µM, the TGI (KM12 colon) was 2.34 µM and the GI50 (SK-MEL-28 melanoma) was 1.13 µM. It also gave a TGI (SK-MEL-28 melanoma) of 2.77 µM, a GI50 (IGROV1 ovarian) of 0.684 µM and a TGI (IGROV1 ovarian) of 2.29 µM. The GI50 (RXF 393 renal) was 0.426 µM, the TGI (RXF 393 renal) was 1.94 µM and the GI50 (HS 578T breast) was 1.11 µM. It also gave a TGI (HS 578T breast) of 5.33 µM, a GI50 (CCRF-CEM leukemia) of 0.215 µM and a TGI (CCRF-CEM leukemia) of 3.37 µM. It also gave a GI50 (SNB-75 CNS) of 1.11 µM, a TGI (SNB-75 CNS) of 2.53 µM and a GI50 (UACC-257 melanoma) of 1.72 µM. The TGI (UACC-257 melanoma) was 4.19 µM, the GI50 (CAKI-1 renal) was 0.348 µM and the TGI (CAKI-1 renal) was 1.38 µM. For the same molecule, the GI50 (SF-295 CNS) was 1.21 µM, the TGI (SF-295 CNS) was 2.73 µM and the GI50 (SW-620 colon) was 0.187 µM. The TGI (SW-620 colon) was 1.28 µM.
